How the values were obtained:
[1] = tested on: MT-4 human lymphoblastoid cells; assay: Cytotoxic effect of the drug on uninfected MT-4 cells (viability by dye); format: cell-based; settings: 5 days
Protocol: Cells. MT-4 human lymphoblastoid cells were used. […] The drug. Samples of drugs dissolved in dimethylsulfoxide were studied. Study of the cytotoxic effect of the drug. The investigated medicinal product was added to the cells in various concentrations. […] Recording of the results: determination of the viability and the number of the cells by means of a dye.

HIV-1899A strain [2] = assay: Antiviral effect in MT-4 cells infected with HIV-1 (MTT, cytopathic effect, syncytium); format: cell-based; settings: 0.01 TCD50/cell, 5 days
Protocol: Cells. MT-4 human lymphoblastoid cells were used. The cells were incubated in RPMI 1640 medium with 10% serum of cow embryos, 100 μg/ml of gentamicin.
Viruses. HIV-1899A strain was used as the source of the virus.
The drug. Samples of drugs dissolved in dimethylsulfoxide were studied.
Study of the antiviral effect of the drug.
(§1) The investigated medicinal products were added to the cells at various doses with simultaneous infection with the virus at a dose of 0.01 TCD50/cell. The cell cultures were incubated at 37° C. in the atmosphere with 5% of CO2 and at 98% humidity for 5 days. The results were recorded by staining the cells with tetrazolium dye (MTT method) with spectrophotometry and light microscopy: investigation of cytopathic effect of the virus (CPD) and virus-induced formation of syncytium (syncytium is a conglomerate of several cells with a common cell membrane formed as a result of fusion of their membranes).
The degree of protection of cells from the cyto-destructive effect of the virus was determined by the following formula:
[formula] where • A is the number of viable cells in the experimental group; • B is the same in the infected culture (virus control); • K is the same in the uninfected culture (cell control).

Hepatitis B virus (HBV) = assay: Amount of extracellular HBV DNA in HepG2.2.15 culture medium (RT-PCR); format: cell-based; settings: 5 μg/ml, HepG2.2.15 cells, 5 days; untreated control 4.42 +/− 0.28
Protocol: HepG2.2.15 line cells infected with Hepatitis B virus were grown in DMEM medium supplemented with 10% bovine serum at 5% CO2, 37° C.
Analysis of the amount of extracellular HBV of the DNA.
After 5 days of HepG2.2.15 incubation the culture medium was selected, the cells were separated by centrifugation, and the DNA was isolated by the Klintschar and Neuhuber method (Klintschar and Neuhuber, 2000). Quantitation of HBV was performed using RT-PCR.

HIV-1899A strain [3] = assay: Joint action with anti-HIV drugs: cell protection in HIV-1 infected MT-4 cells (MTT); format: cell-based
Protocol: MT-4 human lymphoblastoid cells were used. The cells were cultured in RPMI 1640 medium with 10% serum of cow embryos, 100 μg/ml gentamicin.
The strain of HIV-1899A was used as a source of the virus.
The drug. Samples of drugs dissolved in dimethylsulfoxide were studied. As an antiretroviral reference drug, Raltegravir (prototype) was used.
Study of the antiviral action of the drug (cell protection).
as §1, with “drugs” for “medicinal products”, “Cell” for “The cell”, “5%” for “5% of”, “and” for “and at”

melting point | SMILES | Without virus (cytotoxicity) Viability of cells, % ([1]; 10 μg/ml) [%] | Without virus (cytotoxicity) Viability of cells, % ([1]; 30 μg/ml) [%] | Without virus (cytotoxicity) Viability of cells, % ([1]; 50 μg/ml) [%] | HIV 1 infection Cytopathic effect of the virus, % (HIV-1899A strain [2]; 10 μg/ml) | HIV 1 infection Protection of cells, % (HIV-1899A strain [2]; 10 μg/ml) [%] | HIV 1 infection Cytopathic effect of the virus, % (HIV-1899A strain [2]; 30 μg/ml) | HIV 1 infection Protection of cells, % (HIV-1899A strain [2]; 30 μg/ml) [%] | HIV 1 infection Cytopathic effect of the virus, % (HIV-1899A strain [2]; 50 μg/ml) | HIV 1 infection Protection of cells, % (HIV-1899A strain [2]; 50 μg/ml) [%] | HBV Log10 IU/ml (amount of extracellular DNA HBV) (Hepatitis B virus (HBV)) | Protection of cells, % (HIV-1899A strain [3]; Lopinavir alone, 2.5 μg/ml) [%] | Protection of cells, % (HIV-1899A strain [3]; Raltegravir alone, 10 μg/ml) [%] | Protection of cells, % (HIV-1899A strain [3]; Retrovir alone, 0.003 μg/ml) [%]
– | O=[N+]([O-])c1ccc(C2c3c(O)nc(Cl)nc3Oc3nc(Cl)nc(O)c32)cc1 [Derivative 1] | 100.0 | 100.0 | 100.0 | 0.0-0.0% | 100 | 0.0-0.0% | 90 | 0.0-0.0% | 100 | 2.58 +/− 0.33 Log10 IU/ml | – | – | –
– | O=[N+]([O-])c1ccc(C2c3c(O)nc(S)nc3Oc3nc(Cl)nc(O)c32)cc1 (stereo not shown) [Derivative 2, 2-chloro-8-sulfhydryl-5-(4-nitrophenyl)-5H-pyrimido [5′,4′:5,6]pyrano[2,3-d]pyrimidine-4.6-diol] | 100.0 | 100.0 | 100.0 | 0.0-0.0% | 100 | 96-100% | 0 | 55-80% | 10 | 2.65 +/− 0.19 Log10 IU/ml | – | – | –
265 to 267 °C | O=[N+]([O-])c1ccc(C2c3c(O)nc(Cl)nc3Oc3nc(Cl)nc(Cl)c32)cc1 (stereo not shown) [Derivative 3, 2,6,8-trichloro-5-(4-nitrophenyl)-5H-pyrimido [5′, 4′:5,6] pyrano [2,3-d] pyrimidin-4-ol] | 100.0 | 100.0 | 100.0 | 15-70% | 50 | 18-92% | 30 | 10-40% | 65 | – | – | – | –
270 °C (dec.) | O=[N+]([O-])c1ccc(C2C3=C(O)NC(O)(S)N=C3Oc3nc(Cl)nc(O)c32)cc1 (stereo not shown) [Derivative 4, 2-chloro-8-sulfhydryl-5-(4-nitrophenyl)-5H-pyrimido [5′,4′:5,6]pyrano[2,3-d]pyrimidine-4,6,8-triol] | 100.0 | 100.0 | 100.0 | 0.0-0.0% | 95 | 15-60% | 50 | 0.0-0.0% | 90 | – | – | – | –
– | Oc1nc(Cl)nc2c1C(c1ccccc1)c1c(O)nc(Cl)nc1O2 [Derivative 5] | 100.0 | 100.0 | 100.0 | 0.0-0.0% | 100 | 57.5-80.0% | 10.7 | 37.5-62.5% | 71.7 | – | – | – | –
– | Oc1nc(Cl)nc2c1C(c1cccc(Cl)c1)c1c(O)nc(Cl)nc1O2 [Derivative 6] | 100.0 | 100.0 | 100.0 | 57.5-80.0% | 10.7 | 37.5-62.5% | 71.7 | 0.0-0.0% | 90.5 | – | – | – | –
– | COc1ccc(C2c3c(O)nc(Cl)nc3Oc3nc(Cl)nc(O)c32)cc1 [Derivative 7] | 100.0 | 100.0 | 100.0 | 12-65% | 45 | 5-15% | 80 | 0.0-0.0% | 100 | 2.74 +/− 0.25 Log10 IU/ml | – | – | –
– | Cc1cccc(C)c1OCC(=O)N[C@@H](Cc1ccccc1)[C@@H](O)C[C@H](Cc1ccccc1)NC(=O)[C@H](C(C)C)N1CCCNC1=O [Lopinavir] | – | – | – | – | – | – | – | – | – | – | 17 | – | –
– | Cc1nnc(C(=O)NC(C)(C)c2nc(C(=O)NCc3ccc(F)cc3)c(O)c(=O)n2C)o1 [Raltegravir, reference compound] | – | – | – | 0.0-0.0% | 90 | 0.0-0.0% | 100 | 0.0% | – | – | – | 23 | –
– | Cc1cn([C@H]2C[C@H](N=[N+]=[N-])[C@@H](CO)O2)c(=O)[nH]c1=O [Retrovir] | – | – | – | – | – | – | – | – | – | – | – | – | 13

— patent US10253037B2, “Drug with antiviral activity (variants)” (priority 2015, dated 2019)
